Legend:
[1] = system: HEKa primary keratinocytes; assay: Host cell reactivation (HCR) assay, activation of DNA repair in primary keratinocytes; format: cell-based, human; settings: 24 hours, basal = 100
Method: The host cell reactivation (HCR) assay was used in HEKa primary keratinocytes to evaluate the capacity of the peptides of the invention to repair the damage to the DNA in a biologically functional way. 40,000 cells per well were seeded and they were co-transfected with a control plasmid which constitutively expresses the Firefly luciferase gene (pGL3), previously damaged by UVC, and with an undamaged plasmid which constitutively expresses the Renilla luciferase gene (vector pRluc-N1(h)).
Subsequently the cells were incubated with the compounds of the invention at 0.025 mg/mL and 0.5 mg/mL in EpiLife medium for 24 hours, after which the luminescence due to the activity of the Firefly and Renilla luciferases was measured using the Dual-Go Luciferase Assay System kit following the manufacturer's instructions. The carrier in which the compounds of the invention (EpiLife medium) were dissolved was used as a negative control. The activation percentage of the DNA repair for each sample was calculated standardizing the luminescence values of the Firefly luciferase with regard to the Renilla luciferase, subsequently standardizing with regard to the values of the negative control.
(§1) Each experiment was carried out three times in 3 independent experiments.

FOXO response elements = assay: Stimulation of the expression of proteins regulated by FOXO: luciferase reporter under FOXO response elements; format: cell-based, human; settings: 0.5 mg/mL, 24 hours; carrier (0.05% DMSO) = 100
Method: The activation capacity of the FOXO response elements was evaluated in a human epithelial cell line stably transfected with the luciferase gene under the control of a regulatory sequence which contains different FOXO response elements which are in the promoters of the FOXO target genes. The activation capacity of the FOXO response elements indicates the expression of proteins regulated by FOXO. 30,000 cells per well were seeded in a total volume of 100 μL of RPMI 1640 culture medium. After 24 hours the cells with RPMI 1640 culture medium were washed and were incubated with the compounds of the invention at 0.5 mg/mL for 24 hours in a total volume of 100 μL per well. The carrier in which the compounds of the invention were dissolved was used (0.05% DMSO) as a negative control.
The measurement of the activity of the promoter was carried out using the Steady-Go Luciferase Assay System kit following the manufacturer's instructions. The luminescence values (RLU/sec) caused by the reaction between luciferase and the substrate were quantified with a luminometer and normalized by the cell number (absorbance at 630 nm), and the activity of the promoter was determined, which was standardized with regard to the negative control values.
as §1

[2] = system: Fibroblasts from a sample of human skin; assay: Alkaline comet assay, protection against genotoxicity induced by photo-activated benzo[a]pyrene (BaP); format: cell-based; settings: 0.01 mg/mL
Method: Fibroblasts from a sample of human skin were isolated and incubated with 0.01 mg/mL of Ac-L-Tyr-L-Glu-L-Lys-L-Leu-L-Gln-L-Val-NH2 (Ac-SEQ ID NO:22-NH2) or carrier (control) with and without the presence of 40 μM BaP for 2 hours at 37° C. Once this contact time was over the cells were irradiated with 90 KJ/m^2 UVA/visible light (320-800 nm) for a maximum of 2 min at 4° C. to induce photo activation of BaP which damages the DNA. This damage was analyzed by the alkaline comet assay, detecting the DNA breakages. The protective effectiveness of the damage to the DNA of the different treatments was determined by analyzing the images using the software Fenestra Komet 5.5, expressing the damage to the DNA as the Olive Tail Moment (OTM; arbitrary units) and the χ^2 OTM function was determined, related to the quantity of damaged DNA, with the software TableCurve 2D.
As a negative control all the non-irradiated treatments were included (control, 40 μM BaP, 0.01 mg/mL of Ac-SEQ ID NO:22-NH2 and 0.01 mg/mL of (Ac-SEQ ID NO:22-NH2)+40 μM BaP). In table 14 the protective effectiveness results of Ac-SEQ ID NO:22-NH2 in human fibroblasts are shown.
The protection percentage conferred by the compound Ac-SEQ ID NO:22-NH2 against DNA damage induced by BaP was shown as the relationship of the value of χ^2 OTM for treatment with the compound Ac-SEQ ID NO:22-NH2 in the presence of photo-activated BaP with regard to the value of χ^2 OTM of the treatment with photo-activated BaP according to the formula resulting in a protection percentage conferred by the compound Ac-SEQ ID NO:22-NH2 against damage to DNA induced by BaP of 84.3%.

[3] = system: senescence-associated β-galactosidase (SA-β-Gal) in HDFa cells; assay: Reduction of cell senescence in human fibroblasts (SA-β-Gal histochemical detection); format: cell-based; settings: for Proportion of positive SA-β-gal cells: 24 hours, HDF, control 27.28
Method: A widely used assay to evaluate cell senescence is histochemical detection of the activity, of the β-galactosidase, called SA-β-Gal. The activity of the β-galactosidase is derived from the increase in the lysosomal content of senescent cells, which enables the detection of the lysosomal β-galactosidase at pH 6.0. The β-galactosidase is considered a marker of senescence both in vitro and in vivo.
With this objective, HDFa cells from phase 4 of a person were seeded in 96-well plates at 10,000 cells/well in culture medium 106 supplemented with 2% LSGS. After 24 hours the culture medium was removed and the cells were treated with 0.025 mg/mL and 0.01 mg/mL of Ac-L-Tyr-L-Glu-L-Lys-L-Leu-L-Gln-L-Val-NH2 (Ac-SEQ ID NO:22-NH2) in culture medium 106 for another 24 hours at 37° C. and humidified air with 5% CO2.
As a positive control of cell senescence (old fibroblasts) HDFa from phase […] of a person were used treated with culture medium; as a negative control of cell senescence (juvenile fibroblasts) HDFa from phase 4 were used from a person treated with culture medium.
After the incubation period the activity of the senescence-associated β-galactosidase (SA-β-Gal) was determined with the Senescence Cells Histochemical Kit.

In the case of “Ac-YEKLQV-NH2 [Ac-SEQ ID NO: 22-NH2, Ac-L-Tyr-L-Glu-L-Lys-L-Leu-L-Gln-L-Val-NH2]”, the “Activation Average (%) of DNA repair, HCR assay” value ([1]; 0.025 mg/mL) is reported as 203%, the “Activation Average (%) of DNA repair, HCR assay” value ([1]; 0.5 mg/mL) is reported as 272% and the “Stimulation Average (%) of the activation of the FOXO response factors” value (FOXO response elements) is reported as 186%. For the same substance, the “χ^2 OTM” value ([2]; 40 μM BaP, irradiation with UVA/visible, BaP alone 11.38) was 3.52, the “χ^2 OTM” value ([2]; 40 μM BaP, no irradiation, BaP alone 2.07) was 2.18 and the “χ^2 OTM” value ([2]; no BaP, irradiation with UVA/visible, control 2.25) was 2.09. For the same substance, the “χ^2 OTM” value ([2]; no BaP, no irradiation, control 2.08) was 2.26, the “protection percentage against damage to DNA induced by BaP” value ([2]; photo-activated 40 μM BaP) was 84.3% and the “Proportion of positive SA-β-gal cells” value ([3]; 0.01 mg/mL) was 7.02. The “Proportion of positive SA-β-gal cells” value ([3]; 0.025 mg/mL) was 16.90 and the “Effect on proportion of cells containing β-galactosidase (in words)” value ([3]; HDFa) was “reduced the proportion of cells containing β-galactosidase”.
